The results in this text go back to BindingDB's records for doi:10.1021/jm0005454 (Cnrs, 2002).

Assay [1] deals with T1, Neprilysin (Oryctolagus cuniculus, UniProt P08049).
T1 sequence (P08049 whole entry): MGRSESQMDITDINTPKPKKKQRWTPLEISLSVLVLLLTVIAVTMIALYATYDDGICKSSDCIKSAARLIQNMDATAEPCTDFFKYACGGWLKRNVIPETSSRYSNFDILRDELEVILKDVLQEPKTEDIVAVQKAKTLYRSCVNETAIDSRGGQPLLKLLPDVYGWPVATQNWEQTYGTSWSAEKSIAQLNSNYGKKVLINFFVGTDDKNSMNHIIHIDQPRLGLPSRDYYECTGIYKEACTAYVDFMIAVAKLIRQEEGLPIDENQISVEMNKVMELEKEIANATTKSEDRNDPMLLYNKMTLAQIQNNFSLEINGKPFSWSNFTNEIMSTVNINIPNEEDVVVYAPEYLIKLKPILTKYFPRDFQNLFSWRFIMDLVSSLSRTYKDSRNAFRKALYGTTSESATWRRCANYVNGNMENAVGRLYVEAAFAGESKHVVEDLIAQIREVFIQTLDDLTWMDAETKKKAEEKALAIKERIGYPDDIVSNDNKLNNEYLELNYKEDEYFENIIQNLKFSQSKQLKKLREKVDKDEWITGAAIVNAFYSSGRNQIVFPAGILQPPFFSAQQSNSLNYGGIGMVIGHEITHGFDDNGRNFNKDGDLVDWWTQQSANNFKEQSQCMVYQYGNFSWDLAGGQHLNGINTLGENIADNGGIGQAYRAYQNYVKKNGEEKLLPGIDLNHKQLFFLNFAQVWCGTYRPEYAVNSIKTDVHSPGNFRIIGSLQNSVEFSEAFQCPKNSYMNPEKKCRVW
As to the kind of experiment: In Vitro Inhibition of NEP. To be noted: pH 7.4; 37 °C. As to the method: (§1) NEP was preincubated in black 96-well microplates with or without increasing concentrations of inhibitors. DGPA was added, and the reaction was stopped after 1 hr of incubation. The fluorescence was measured at excitation wavelength = 340 nm, emission wavelength = 530 nm.

Assay [2] has as its target T2, Angiotensin-converting enzyme (Rattus norvegicus, UniProt P47820).
T2 sequence (P47820 whole entry): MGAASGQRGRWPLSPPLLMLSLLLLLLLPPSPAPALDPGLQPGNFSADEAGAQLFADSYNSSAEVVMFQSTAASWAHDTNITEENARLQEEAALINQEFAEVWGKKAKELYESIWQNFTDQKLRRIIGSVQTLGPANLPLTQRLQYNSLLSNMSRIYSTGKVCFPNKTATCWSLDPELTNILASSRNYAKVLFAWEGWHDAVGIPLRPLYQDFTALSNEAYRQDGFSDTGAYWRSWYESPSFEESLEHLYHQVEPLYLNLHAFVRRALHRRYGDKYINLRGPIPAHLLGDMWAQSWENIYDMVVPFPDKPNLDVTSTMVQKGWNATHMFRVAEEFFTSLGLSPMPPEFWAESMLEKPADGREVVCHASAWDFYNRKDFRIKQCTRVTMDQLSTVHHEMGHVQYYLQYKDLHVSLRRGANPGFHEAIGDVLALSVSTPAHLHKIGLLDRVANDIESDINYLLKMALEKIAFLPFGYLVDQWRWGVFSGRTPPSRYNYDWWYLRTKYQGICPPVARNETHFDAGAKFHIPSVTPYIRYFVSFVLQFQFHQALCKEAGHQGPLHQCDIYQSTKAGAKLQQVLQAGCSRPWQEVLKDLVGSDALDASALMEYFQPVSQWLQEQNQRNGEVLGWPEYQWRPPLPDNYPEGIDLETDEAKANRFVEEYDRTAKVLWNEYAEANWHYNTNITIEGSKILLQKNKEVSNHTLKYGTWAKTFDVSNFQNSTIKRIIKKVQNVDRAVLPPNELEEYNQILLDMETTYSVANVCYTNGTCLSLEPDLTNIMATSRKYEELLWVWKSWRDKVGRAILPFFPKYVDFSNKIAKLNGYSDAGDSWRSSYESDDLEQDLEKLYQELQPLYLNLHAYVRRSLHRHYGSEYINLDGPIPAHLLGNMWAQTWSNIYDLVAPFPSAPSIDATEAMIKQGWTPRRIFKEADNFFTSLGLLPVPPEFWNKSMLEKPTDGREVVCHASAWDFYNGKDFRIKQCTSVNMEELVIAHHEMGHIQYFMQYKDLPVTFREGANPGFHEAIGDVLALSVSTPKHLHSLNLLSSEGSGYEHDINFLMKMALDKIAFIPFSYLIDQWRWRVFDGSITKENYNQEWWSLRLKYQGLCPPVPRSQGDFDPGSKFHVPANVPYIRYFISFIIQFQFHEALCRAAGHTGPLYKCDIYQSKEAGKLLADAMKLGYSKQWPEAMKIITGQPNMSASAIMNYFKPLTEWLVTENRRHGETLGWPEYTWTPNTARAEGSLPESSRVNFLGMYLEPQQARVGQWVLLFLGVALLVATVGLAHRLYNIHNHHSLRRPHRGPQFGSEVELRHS
The assay is described as follows: In Vitro Inhibition of NEP. The protocol: as §1

Structures are written as SMILES.

Regarding `O=C(O)[C@H](Cc1c[nH]c2ccccc12)NC(=O)[C@@H](CS)[C@@H]1CCCc2ccccc21` [(2S)-3-(1H-indol-3-yl)-2-[(2S)-3-sulfanyl-2-[(1S)-1,2,3,4-tetrahydronaphthalen-1-yl]propanamido]propanoic acid], the Ki amounted to 8 nM in assay [1] and 26 nM in assay [2].

In general, Ki refers to the equilibrium dissociation constant of an inhibitor or competing ligand from its target. The low end stands for higher affinity, the high end for lower affinity.
